Test results taken from PubChem BioAssay AID504587 (National Center for Advancing Translational Sciences (NCATS), 2011).

System: Caco-2 bidirectional permeability, LC-MS/MS efflux ratio
Assay: Inhibitors of HPGD: Efflux Ratio Profiling
Conditions: hits give low values
Text: Human 15-Hydroxyprostaglandin dehydrogenase (HPGD) catalyzes the inactivation of prostaglandin E2, and plays a major role in cancer biology by antagonizing the oncogenic potential of cyclooxygenase type 2 (COX2). Assays are available, based on absorbance/fluorescence increase of NADH with the substrate 15-OH prostaglandin E2. This bioassays provides profiling data on Caco-2 cell permeability of leads compounds developed for the HPGD project. This in vitro model is often predictive of in vivo efflux of the compound by measuring the ratio of transport in and out the plasma membrane of the Caco2-cell line. NIH Chemical Genomics Center [NCGC] Structural Genomics Consortium [SGC]
1. Buffer Preparation: Prepare 1M HEPES: add 23.83g HEPES to 100ml of 0.85% NaCl Prepare HBSS+ buffer: add 12.8ml of 1M HEPES in 0.85% NaCl to 500ml HBSS buffer. 2. Take out the compounds from -80 degrees C, ultrasonicate or pre-warm for a few minutes to thaw the compounds. 3. Solution preparation Prepare donor buffer: For A-to-B direction: HBSS buffer with 0.3% DMSO and 5uM Lucifer Yellow (LY): add 150 µl DMSO and 50 µl LY (5mM) into 50ml HBSS buffer (pH 7.4). HBSS buffer with 0.1% DMSO and 5 µM Lucifer Yellow (LY): add 50 µl DMSO and 50 µl LY (5mM) into 50ml HBSS buffer (pH 7.4). […] The T0, LY and T90, LY plates are read by FlexStation 3 at excitation of 485 nm and emission of 535 nm to determine LY permeability. […]

efflux ratio | SMILES
15 | Cc1cccc(-n2cnc3cc(C(=O)N4CCCCC4)ccc32)c1
21 | Cc1cc(-c2nnc3n2CCCCC3)c(C)n1-c1ccccc1
